Reference: patent US12491170B2, “Stable treprostinil prodrugs” (United Therapeutics Corporation, priority 2020, dated 2025)
Blank lines part the entries; values can stand above or below the molecule they belong to.

Tests used:
[1] = Stability in liver microsomes, human; settings: for AUC Mono (treprostinil formed) / AUC / CLint / Half-life: human
[2] = Stability in liver microsomes, rat; settings: for AUC Mono (treprostinil formed) / CLint / Half-life: rat; for CLint, calculated (in parentheses) / Half-life, calculated (in parentheses) / CLint / Half-life: microsomes
[3] = Stability in liver microsomes, dog; settings: for AUC Mono (treprostinil formed) / CLint / Half-life: dog
[4] = Stability in cryopreserved hepatocytes, human; settings: for Mono AUC (treprostinil formed) / AUC / CLint / Half-life: human; for CLint, calculated (in parentheses) / Half-life, calculated (in parentheses) / CLint / Half-life: hepatocytes
[5] = Stability in cryopreserved hepatocytes, rat; settings: for Mono AUC (treprostinil formed) / AUC / CLint / Half-life: rat; for CLint, calculated (in parentheses) / Half-life, calculated (in parentheses) / CLint / Half-life: hepatocytes
[6] = Stability in cryopreserved hepatocytes, dog; settings: for Mono AUC (treprostinil formed) / AUC / CLint / Half-life: dog
[7] = molecular target: prostaglandin I2 (PGI2) receptor (IP) (Homo sapiens, UniProt P43119); experiment: IP receptor cAMP agonist assay (CHO-K1 cells); type: cell-based; settings: for IP Relative to Tre: Table 22, relative to treprostinil EC50 values, * partial agonists or ambiguous dose-response curves; for Activity at the IP receptor compared to treprostinil: summary of findings
Method: (§1) Cyclic AMP assay kit: Multiscreen™ TR-FRET cAMP 1.0 No Wash Assay Kit (Multispan, Inc.)
(§2) Cells were thawed from frozen cells and resuspended in assay buffer at desired concentrations. cAMP or Calcium assays were performed according to the manufacturer's protocol using Multiscreen™ TR-FRET cAMP 1.0 No Wash Assay Kit or Multiscreen™ Calcium 1.0 No Wash Kit.
(§3) Gas Cyclic AMP (cAMP) Assay: In agonist mode testing, cells were seeded in a 384-well plate at an appropriate density and then were treated with compounds and incubated at 37° C. for 20 minutes. The reaction was terminated by […] trFluor™ Eu-labeled cAMP and trFluor™ 650-labeled anti-cAMP antibody in lysis buffer. […] All testing wells contained 0.1% DMSO in the final concentrations.
(§4) Data in graphs are represented in Mean±SD. Dose-dependent responses were fitted with sigmoidal dose-response curves allowing variable slopes using GraphPad Prism version 6 (Graphpad Prism).
(§5) These studies used cell lines overexpressing either human IP, EP2 or DP1, or EP1 receptors, and following incubation with varying concentrations of compounds, cAMP levels were measured using Fluorescence Resonance Energy Transfer (FRET).

[8] = molecular target: prostaglandin E2 (PGE2) receptor 2 (EP2) (Homo sapiens, UniProt P43116); experiment: EP2 receptor cAMP agonist assay (HEK293T cells); type: cell-based; settings: for EP2 Relative to Tre: Table 22, relative to treprostinil EC50 values, * partial agonists or ambiguous dose-response curves; for Activity at the EP2 receptor compared to treprostinil: summary of findings
Method: as §1, §2, §3, §4, §5

Chain of prostaglandin I2 (PGI2) receptor (IP) (P43119 whole entry): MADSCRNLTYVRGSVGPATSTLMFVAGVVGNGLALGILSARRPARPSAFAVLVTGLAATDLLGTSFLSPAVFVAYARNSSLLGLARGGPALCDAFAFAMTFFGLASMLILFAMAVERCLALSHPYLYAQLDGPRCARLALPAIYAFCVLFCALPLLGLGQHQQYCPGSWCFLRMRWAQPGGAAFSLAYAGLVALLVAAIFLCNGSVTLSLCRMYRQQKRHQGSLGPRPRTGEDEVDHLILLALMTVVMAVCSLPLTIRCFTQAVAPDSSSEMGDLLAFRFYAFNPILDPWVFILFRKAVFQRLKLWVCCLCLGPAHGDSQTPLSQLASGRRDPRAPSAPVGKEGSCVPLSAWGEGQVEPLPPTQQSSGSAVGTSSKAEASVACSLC
Chain of prostaglandin E2 (PGE2) receptor 2 (EP2) (P43116 whole entry): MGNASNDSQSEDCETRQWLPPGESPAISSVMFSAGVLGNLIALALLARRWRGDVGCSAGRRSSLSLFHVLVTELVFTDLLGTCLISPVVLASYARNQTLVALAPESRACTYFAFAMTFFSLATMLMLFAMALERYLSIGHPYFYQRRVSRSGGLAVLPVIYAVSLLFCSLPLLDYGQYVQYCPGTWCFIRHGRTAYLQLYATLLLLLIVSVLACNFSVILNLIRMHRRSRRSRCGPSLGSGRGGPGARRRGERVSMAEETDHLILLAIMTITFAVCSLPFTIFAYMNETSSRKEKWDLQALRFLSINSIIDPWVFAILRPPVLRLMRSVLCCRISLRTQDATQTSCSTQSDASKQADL

Treprostinil Concentration 0 min [1]: 0.883 µM
Treprostinil Concentration 15 min [1]: 0.681 µM
Treprostinil Concentration 30 min [1]: 0.602 µM
Treprostinil Concentration 60 min [1]: 0.513 µM
Treprostinil Concentration 120 min [1]: 0.341 µM
AUC Mono (treprostinil formed) [1]: 32.6 µmol·min/L
Treprostinil Concentration 0 min [2]: 0.035 µM
Treprostinil Concentration 15 min [2]: 0.0741 µM
Treprostinil Concentration 30 min [2]: 0.111 µM
Treprostinil Concentration 60 min [2]: 0.145 µM
Treprostinil Concentration 120 min [2]: 0.206 µM
AUC Mono (treprostinil formed) [2]: 8.0 µmol·min/L
Treprostinil Concentration 0 min [3]: 0.964 µM
Treprostinil Concentration 15 min [3]: 0.917 µM
Treprostinil Concentration 30 min [3]: 0.899 µM
Treprostinil Concentration 60 min [3]: 0.932 µM
Treprostinil Concentration 120 min [3]: 0.873 µM
AUC Mono (treprostinil formed) [3]: 54.7 µmol·min/L
Treprostinil Concentration 0 min [4]: 0.00744 µM
Treprostinil Concentration 120 min [4]: 0.507 µM
Mono AUC (treprostinil formed) [4]: 62.2 µmol·min/L
Treprostinil Concentration 0 min [5]: 0.00292 µM
Treprostinil Concentration 120 min [5]: 0.503 µM
Mono AUC (treprostinil formed) [5]: 41.4 µmol·min/L
Treprostinil Concentration 15 min [6]: 0.628 µM
Treprostinil Concentration 120 min [6]: 0.4 µM
Mono AUC (treprostinil formed) [6]: 54.0 µmol·min/L
IP Relative to Tre [7]: 632x
EP2 Relative to Tre [8]: 461x
Molecule: CCCCCC(CCC1C(O)CC2Cc3c(cccc3OCC(=O)O)CC21)OC(C)=O (stereo not drawn) [Prodrug XLIII]

AUC [1]: 10.56 µmol·min/L
AUC Mono (treprostinil formed) [1]: 10.6 µmol·min/L
CLint ([1]; microsomes): > 0.139 mL/min/mg protein
Half-life ([1]; microsomes): < 10 min
CLint, calculated (in parentheses) ([1]; microsomes): 0.189 mL/min/mg protein
Half-life, calculated (in parentheses) ([1]; microsomes): 7.32 min
CLint, calculated (in parentheses) [2]: 0.575 mL/min/mg protein
Half-life, calculated (in parentheses) [2]: 2.41 min
AUC Mono (treprostinil formed) [2]: 33.5 µmol·min/L
CLint [2]: > 0.139 mL/min/mg protein
Half-life [2]: < 10 min
AUC Mono (treprostinil formed) [3]: 56.2 µmol·min/L
CLint ([3]; microsomes): > 0.139 mL/min/mg protein
Half-life ([3]; microsomes): < 10 min
CLint, calculated (in parentheses) ([3]; microsomes): 0.454 mL/min/mg protein
Half-life, calculated (in parentheses) ([3]; microsomes): 3.05 min
CLint, calculated (in parentheses) [4]: 0.0516 mL/min/mg protein
Half-life, calculated (in parentheses) [4]: 8.96 min
AUC [4]: 26.57 µmol·min/L
Mono AUC (treprostinil formed) [4]: 26.6 µmol·min/L
CLint [4]: > 0.0308 mL/min/mg protein
Half-life [4]: < 15 min
CLint, calculated (in parentheses) [5]: 0.295 mL/min/mg protein
Half-life, calculated (in parentheses) [5]: 1.56 min
AUC [5]: 39.77 µmol·min/L
Mono AUC (treprostinil formed) [5]: 39.8 µmol·min/L
CLint [5]: > 0.0308 mL/min/mg protein
Half-life [5]: < 15 min
AUC [6]: 41.47 µmol·min/L
Mono AUC (treprostinil formed) [6]: 41.5 µmol·min/L
CLint ([6]; hepatocytes): > 0.0308 mL/min/mg protein
Half-life ([6]; hepatocytes): < 15 min
CLint, calculated (in parentheses) ([6]; hepatocytes): 0.187 mL/min/mg protein
Half-life, calculated (in parentheses) ([6]; hepatocytes): 2.47 min
Activity at the IP receptor compared to treprostinil [7]: inactive
Activity at the EP2 receptor compared to treprostinil [8]: inactive
Molecule: CCCCCC(CCC1C(OC(=O)OC)CC2Cc3c(cccc3OCC(=O)O)CC21)OC(=O)OC (stereo not drawn) [Prodrug LXXI, treprostinil dicarbonate]

Treprostinil Concentration 0 min [1]: 0.02 µM
Treprostinil Concentration 15 min [1]: 0.038 µM
Treprostinil Concentration 30 min [1]: 0.038 µM
Treprostinil Concentration 60 min [1]: 0.03 µM
Treprostinil Concentration 120 min [1]: 0.061 µM
AUC Mono (treprostinil formed) [1]: 2.4 µmol·min/L
Treprostinil Concentration 0 min [2]: 0.27 µM
Treprostinil Concentration 15 min [2]: 0.39 µM
Treprostinil Concentration 30 min [2]: 0.46 µM
Treprostinil Concentration 60 min [2]: 0.53 µM
Treprostinil Concentration 120 min [2]: 0.73 µM
AUC Mono (treprostinil formed) [2]: 31.4 µmol·min/L
Treprostinil Concentration 0 min [3]: 0.21 µM
Treprostinil Concentration 15 min [3]: 0.32 µM
Treprostinil Concentration 30 min [3]: 0.43 µM
Treprostinil Concentration 60 min [3]: 0.48 µM
Treprostinil Concentration 120 min [3]: 0.75 µM
AUC Mono (treprostinil formed) [3]: 29.4 µmol·min/L
Treprostinil Concentration 0 min [4]: 0 µM
Treprostinil Concentration 120 min [4]: 0.540 µM
Mono AUC (treprostinil formed) [4]: 48.7 µmol·min/L
Treprostinil Concentration 0 min [5]: 0.128 µM
Treprostinil Concentration 120 min [5]: 0.53 µM
Mono AUC (treprostinil formed) [5]: 66.9 µmol·min/L
Treprostinil Concentration 15 min [6]: 0.581 µM
Treprostinil Concentration 120 min [6]: 0.548 µM
Mono AUC (treprostinil formed) [6]: 62.9 µmol·min/L
IP Relative to Tre [7]: 5x
IP Relative to Tre ([7]; listed as Prodrug VI repeat): 1.5x
EP2 Relative to Tre [8]: 4x
EP2 Relative to Tre ([8]; listed as Prodrug VI repeat): 9x
Molecule: CCCCCC(CCC1C(O)CC2Cc3c(cccc3OCC(=O)O)CC21)OP(=O)(O)O (stereo not drawn) [Prodrug VI]

Trep Concentration 0 min [1]: 0.989 µM
Trep Concentration 10 min [1]: 0.829 µM
Trep Concentration 20 min [1]: 0.543 µM
Trep Concentration 30 min [1]: 0.485 µM
Trep Concentration 60 min [1]: 0.349 µM
Treprostinil Concentration 0 min [1]: 0.989 µM
Treprostinil Concentration 15 min [1]: 0.829 µM
Treprostinil Concentration 30 min [1]: 0.543 µM
Treprostinil Concentration 60 min [1]: 0.485 µM
Treprostinil Concentration 120 min [1]: 0.349 µM
AUC [1]: 33.6 µmol·min/L
AUC Mono (treprostinil formed) [1]: 33.6 µmol·min/L
CLint ([1]; microsomes): >0.139 mL/min/mg protein
Half-life ([1]; microsomes): <10 min
Trep Concentration 0 min [2]: 0.0413 µM
Trep Concentration 10 min [2]: 0.095 µM
Trep Concentration 20 min [2]: 0.182 µM
Trep Concentration 30 min [2]: 0.19 µM
Trep Concentration 60 min [2]: 0.216 µM
Treprostinil Concentration 0 min [2]: 0.0413 µM
Treprostinil Concentration 15 min [2]: 0.095 µM
Treprostinil Concentration 30 min [2]: 0.182 µM
Treprostinil Concentration 60 min [2]: 0.19 µM
Treprostinil Concentration 120 min [2]: 0.216 µM
CLint, calculated (in parentheses) [2]: 0.144 mL/min/mg protein
Half-life, calculated (in parentheses) [2]: 9.65 min
AUC Mono (treprostinil formed) [2]: 10.0 µmol·min/L
CLint [2]: > 0.139 mL/min/mg protein
Half-life [2]: < 10 min
Trep Concentration 0 min [3]: 1.07 µM
Trep Concentration 10 min [3]: 1.07 µM
Trep Concentration 20 min [3]: 1.04 µM
Trep Concentration 30 min [3]: 1.05 µM
Trep Concentration 60 min [3]: 0.897 µM
Treprostinil Concentration 0 min [3]: 1.07 µM
Treprostinil Concentration 15 min [3]: 1.07 µM
Treprostinil Concentration 30 min [3]: 1.04 µM
Treprostinil Concentration 60 min [3]: 1.05 µM
Treprostinil Concentration 120 min [3]: 0.897 µM
AUC Mono (treprostinil formed) [3]: 60.9 µmol·min/L
CLint ([3]; microsomes): >0.139 mL/min/mg protein
Half-life ([3]; microsomes): <10 min
Trep Concentration (μM) 0 min [4]: 0.00458 µM
Trep Concentration (μM) 15 min [4]: 0.562 µM
Trep Concentration (μM) 30 min [4]: 0.491 µM
Trep Concentration (μM) 60 min [4]: 0.433 µM
Treprostinil Concentration 0 min [4]: 0.00458 µM
CLint, calculated (in parentheses) [4]: 0.276 mL/min/mg protein
Half-life, calculated (in parentheses) [4]: 1.67 min
AUC [4]: 49.92 µmol·min/L
Mono AUC (treprostinil formed) [4]: 49.9 µmol·min/L
CLint [4]: > 0.0308 mL/min/mg protein
Half-life [4]: < 15 min
Trep Concentration (μM) 0 min [5]: 0 µM
Trep Concentration (μM) 15 min [5]: 0.24 µM
Trep Concentration (μM) 30 min [5]: 0.301 µM
Trep Concentration (μM) 60 min [5]: 0.298 µM
Trep Concentration (μM) 120 min [5]: 0.274 µM
Treprostinil Concentration 0 min [5]: 0 µM
Treprostinil Concentration 120 min [5]: 0.274 µM
CLint, calculated (in parentheses) [5]: 0.0697 mL/min/mg protein
Half-life, calculated (in parentheses) [5]: 6.63 min
AUC [5]: 32 µmol·min/L
Mono AUC (treprostinil formed) [5]: 32.0 µmol·min/L
CLint [5]: > 0.0308 mL/min/mg protein
Half-life [5]: < 15 min
Trep Concentration (μM) 0 min [6]: 0.0636 µM
Trep Concentration (μM) 30 min [6]: 0.541 µM
Trep Concentration (μM) 60 min [6]: 0.465 µM
Trep Concentration (μM) 120 min [6]: 0.401 µM
Treprostinil Concentration 15 min [6]: 0.671 µM
Treprostinil Concentration 120 min [6]: 0.401 µM
AUC [6]: 55.67 µmol·min/L
Mono AUC (treprostinil formed) [6]: 55.7 µmol·min/L
CLint ([6]; hepatocytes): >0.0308 mL/min/mg protein
Half-life ([6]; hepatocytes): <15 min
Activity at the IP receptor compared to treprostinil [7]: inactive
Activity at the EP2 receptor compared to treprostinil [8]: non-traditional dose response curve
Molecule: treprostinil diacetate [Prodrug LXXII]
